Experimental findings from patent US7354921B2, “Pyrazolotriazines as kinase inhibitors” (Schering Corporation, priority 2004, dated 2008) are described below.

pIC50: −log10 of the molar value.

One may read the pIC50 as −log10 of the IC50, conventionally taken in molar units.

In the assay the target is T1, CDK2 (Homo sapiens, UniProt P24941).
T1 construct: The expressed protein is approximately 34 kDa in size; made in house; host or cells: SF9 insect cells (recombinant baculovirus, pFASTBAC)
Description: CDK2 in vitro kinase assay (cyclin A or E-dependent), 33P-ATP SPA. In kind it is biochemical. Particulars: recombinant cyclin-CDK2 complex (cyclin A or E, not specified); biotinylated Histone H1 peptide substrate; 1 hour at room temperature; read-out: CDK 2 IC50.

In the case of `CCc1cnn2c(NCc3cncnc3)nc(N3CCCC[C@H]3CCO)nc12`, the pIC50 was 9.25.
For `CCc1cnn2c(NCc3ccn(CC)c(=O)c3)nc(N3CCCC[C@H]3CCO)nc12` the value was 9.28; for `Cn1cc(CNc2nc(N3CCCC[C@H]3CCO)nc3c(C4CC4)cnn23)ccc1=O`, 8.51; for `CCc1cnn2c(Nc3ccc(S(C)(=O)=O)cc3)nc(N3CCCC[C@H]3CCO)nc12`, 6.97.
Turning to `CCc1cnn2c(NCc3ccnnc3)nc(N3CCCC[C@H]3CCO)nc12`, the pIC50 is 8.92.
Under `CCc1cnn2c(NCc3cccnc3)nc(N3CCCC[C@H]3CCO)nc12` stands 9.06; under `CCc1cnn2c(NCc3ccc(=O)n(C)c3)nc(N3CCCC[C@H]3CCO)nc12`, 9.32.
